Assay results as given in US6906007B2, “Phenyl-substituted 5,6-dihydropyrone derivatives for use as pesticides and herbicides” (Bayer CropScience AG, priority 2000, dated 2005).

Tests used:
Assay type in all cases: in vivo
[1] = test system: greenhouse red spider mite (Tetranychus urticae); test: Tetranychus test (OP-resistant/dip treatment); settings: bean plants dipped
Procedure: Tetranychus Test (OP-Resistant/Dip Treatment)
Solvent: 30 parts by weight of dimethylformamide
Emulsifier: 1 part by weight of alkylaryl polyglycol ether
(§1) To produce a suitable preparation of active compound, 1 part by weight of active compound is mixed with the stated amounts of solvent and emulsifier, and the concentrate is diluted with water to the desired concentration.
Bean plants (Phaseolus vulgaris) which are heavily infested by all stages of the greenhouse red spider mite (Tetranychus urticae) are dipped into a preparation of active compound of the desired concentration.
After the desired period of time, the effect in % is determined. 100% means that all of the spider mites have been killed, 0% means that none of the spider mites has been killed.
In this test, for example, the following compounds of the Preparation Examples show good activity.

[2] = test system: larvae of the mustard beetle (Phaedon cochleariae); test: Phaedon larvae test; settings: 1000 ppm, cabbage leaves dipped
Procedure: (§2) Phaedon larvae Test Solvent: 30 parts by weight of dimethylformamide Emulsifier: 1 part by weight of alkylaryl polyglycol ether To produce a suitable preparation of active compound, 1 part by weight of active compound is mixed with the stated amounts of solvent and emulsifier, and the concentrate is diluted with water to the desired concentration. Cabbage leaves (Brassica oleracea) are treated by being dipped into the preparation of active compound of the desired concentration and are populated with larvae of the mustard beetle (Phaedon cochleariae) while the leaves are still moist. After the desired period of time, the kill in % is determined. 100% means that all of the beetle larvae have been killed. 0% means that none of the beetle larvae has been killed. In this test, for example, the following compounds of the Preparation Examples show good activity.

[3] = test system: peach aphid (Myzus persicae); test: Myzus test; settings: 1000 ppm, cabbage leaves dipped
Procedure: Myzus Test Solvent: 30 parts by weight of dimethylformamide Emulsifier: 1 part by weight of alkylaryl polyglycol ether To produce a suitable preparation of active compound, 1 part by weight of active compound is mixed with the stated amounts of solvent and emulsifier, and the concentrate is diluted with water to the desired concentration. Cabbage leaves (Brassica oleracea) which are heavily infested by the peach aphid (Myzus persicae) are treated by being dipped into a preparation of active compound of the desired concentration. After the desired period of time, the kill in % is determined. 100% means that all of the aphids have been killed: 0% means that none of the aphids has been killed. In this test, for example, the following compounds of the Preparation Examples show good activity.

[4] = test system: fruit tree red spider mite (Panonychus ulmi); test: Panonychus test; settings: 200 ppm, plum trees sprayed
Procedure: Panonychus Test Solvent: 3 parts by weight of dimethylformamide Emulsifier: 1 part by weight of alkylaryl polyglycol ether To produce a suitable preparation of active compound, 1 part by weight of active compound is mixed with the stated amounts of solvent and emulsifier, and the concentrate is diluted with water to the desired concentration. Plum trees (Prunus domestica), of a height of approximately 30 cm, which are heavily infested by all stages of the fruit tree red spider mite (Panonychus ulmi) are sprayed with a preparation of active compound of the desired concentration. After the desired period of time, the effect in % is determined. 100% means that all of the spider mites have been killed: 0% means that none of the spider mites has been killed.

[5] = test system: caterpillars of the army worm (Spodoptera frugiperda); test: Spodoptera frugiperda test; settings: 1000 ppm, cabbage leaves dipped
Procedure: as §2, with “Spodoptera frugiperda” for “Phaedon larvae”, “caterpillars” for “larvae”, “army worm (Spodoptera frugiperda)” for “mustard beetle (Phaedon cochleariae)”, “caterpillars” for “beetle larvae”, “killed; 0%.” for “killed. 0%”

Meloidogyne incognita [6] = test: Meloidogyne test (Example A); settings: 20 ppm active compound, gall formation on lettuce roots
Procedure: (§3) Meloidogyne Test Solvent: 30 parts by weight of dimethylformamide Emulsifier: 1 part by weight of alkylaryl polyglycol ether To produce a suitable preparation of active compound, 1 part by weight of active compound is mixed with the stated amounts of solvent and emulsifier, and the concentrate is diluted with water to the desired concentration. Containers are filled with sand, solution of active compound, Meloidogyne incognita egg/larvae suspension and lettuce seeds. The lettuce seeds germinate and the plants develop. On the roots, galls are formed. After the desired period of time, the nematicidal action in % is determined using the formation of galls as a measure. 100% means that no galls have been found; 0% means that the number of galls on the treated plants corresponds to that on the untreated control.

Sphaerotheca fuliginea = test: Sphaerotheca test (cucumber)/protective; settings: 750 g/ha, protective, evaluation 7 days after inoculation
Procedure: Sphaerotheca Test (Cucumber)/Protective
Solvent: 48.8 parts by weight of N,N-dimethylformamide
Emulsifier: 1.2 parts by weight of alkylaryl polyglycol ether
as §1
To test for protective activity, young cucumber plants are sprayed with the preparation of active compound at the stated application rate. 1 day after the treatment, the plants are inoculated with a spore suspension of Sphaerotheca fuliginea. The plants are then placed in a greenhouse at 70% relative atmospheric humidity and a temperature of 23° C.
Evaluation is carried out 7 days after the inoculation. 0% means an efficacy which corresponds to that of the control, whereas an efficacy of 100% meais that no infection is observed.

Meloidogyne incognita [7] = test: Meloidogyne test (Example G); settings: 20 ppm; gall formation on lettuce roots
Procedure: as §3, with “Test Solvent: 8 parts by” for “Test Solvent: 30 parts by”, “of active compound. Meloidogyne incognita” for “of active compound, Meloidogyne incognita”

SMILES: Cc1ccc(-c2ccc(Cl)cc2)cc1C1=C(OC(=O)OC(C)C)C(C)(C)C(C)(C)OC1=O [Ex. I-A-c-3]
- Kill rate in % after 7d ([1]; 0.01 ppm): 100%
- Kill rate in % after 7d [2]: 90%

SMILES: Cc1cc(-c2ccc(Cl)cc2)cc(C)c1C1=C(OC(=O)C(C)C)C(C)(C)COC1=O [Ex. I-A-b-11]
- Kill rate in % after 7d [2]: 100%

SMILES: Cc1ccc(-c2ccc(Cl)cc2)cc1C1=C(O)C(C)(C)C(C)(C)OC1=O [Ex. I-a-6]
- Kill rate in % after 6d [3]: 95%
- Kill rate in % after 7d ([1]; 100 ppm): 100%
- Kill rate in % after 14d [4]: 100%
- Kill rate in % after 7d [2]: 100%
- Kill rate in % after 7d [5]: 100%

SMILES: Cc1cc(C)c(C2=C(OC(=O)OC(C)C)OCC(C)(C)C2=O)c(C)c1 [Ex. I-B-c-1]
- Kill rate in % after 14d (Meloidogyne incognita [6]): 90%
- Kill rate in % after 7d ([1]; 100 ppm): 100%

SMILES: Cc1cc(C)c(C2=C(OC(=O)C(C)C)OC(C)(C)C(C)(C)C2=O)c(C)c1 [Ex. I-B-b-16]
- Kill rate in % after 7d ([1]; 100 ppm): 100%

SMILES: Cc1cc(C)c(C2=C(OC(=O)C(C)C)OCC(C)(C)C2=O)c(C)c1 [Ex. I-B-b-17]
- Kill rate in % after 14d (Meloidogyne incognita [6]): 90%
- Kill rate in % after 7d ([1]; 100 ppm): 100%

SMILES: COC1OC(OC(C)=O)=C(c2ccc(Cl)cc2C)C(=O)C1(C)C (centres unmarked) [Ex. I-B-b-13]
- Efficacy in % (Sphaerotheca fuliginea): 70%

SMILES: Cc1ccc(-c2ccc(Cl)cc2)cc1C1=C(O)C(C)(C)COC1=O [Ex. I-a-5]
- Kill rate in % after 6d [3]: 95%
- Kill rate in % after 14d (Meloidogyne incognita [6]): 100%
- Kill rate in % after 7d [2]: 100%

SMILES: Cc1cc(C)c(C2=C(O)C(C)(C)C(C)(C)OC2=O)c(C)c1 [Ex. I-a-7]
- Kill rate in % after 6d [3]: 90%
- Kill rate in % at active compound concentration in ppm (Meloidogyne incognita [7]): 20 ppm = 100%

SMILES: Cc1cc(-c2ccc(Cl)cc2)cc(C)c1C1=C(O)C(C)(C)COC1=O [Ex. I-a-13]
- Kill rate in % after 7d [2]: 100%

SMILES: Cc1ccc(-c2ccc(Cl)cc2)cc1C1=C(OC(=O)C(C)C)C(C)(C)C(C)(C)OC1=O [Ex. I-A-b-10]
- Kill rate in % after 14d (Meloidogyne incognita [6]): 100%
- Kill rate in % after 7d [2]: 100%
- Kill rate in % after 7d [5]: 100%

SMILES: COC1OC(=O)C(c2ccc(Cl)cc2C)=C(OC(C)=O)C1(C)C (centres unmarked) [Ex. I-A-b-3]
- Efficacy in % (Sphaerotheca fuliginea): 80%

SMILES: Cc1cc(-c2ccc(Cl)cc2)cc(C)c1C1=C(OC(=O)C(C)C)C(C)(C)C(C)(C)OC1=O [Ex. I-A-b-1]
- Kill rate in % after 14d (Meloidogyne incognita [6]): 100%

SMILES: Cc1cc(-c2ccc(Cl)cc2)cc(C)c1C1=C(O)C(C)(C)C(C)(C)OC1=O [Ex. I-a-1]
- Kill rate in % after 7d [2]: 100%
